pIC50: −log10 of the molar value. Where “and” joins values, the source holds several entries; their conditions need not be identical. Identical values can stand only once.

These results are taken from ChEMBL document CHEMBL3638462, “Pyridine and pyrimidine derivatives as phosphodiesterase 10 inhibitors” (2014).

This assay has as its target cAMP and cAMP-inhibited cGMP 3',5'-cyclic phosphodiesterase 10A (Homo sapiens, UniProt Q9Y233). Nature of the assay: Enzyme Inhibition Assay: To check the inhibition profile, 5 μL of serial diluted compounds were incubated with 5 μL of diluted PDE10 enzyme (BPS Bioscience, San Diego, Calif.) or tissue homogenate in a 384-well polystyrene assay plate (Corning, Corning, N.Y.) for 30 min at room temperature. After incubation, 10 μL of diluted fluorescein labeled cAMP or cGMP substrate were added and incubated for 60 min at room temperature. The reaction was stopped by adding 60 μL of diluted binding reagents and plates were read on an Envision (Perkin Elmer, Waltham, Mass.) for time resolved fluorescence resonance energy transfer. The data were analyzed with GraphPad Prism (La Jolla, Calif.).

cAMP and cAMP-inhibited cGMP 3',5'-cyclic phosphodiesterase 10A, sequence (Q9Y233 whole entry): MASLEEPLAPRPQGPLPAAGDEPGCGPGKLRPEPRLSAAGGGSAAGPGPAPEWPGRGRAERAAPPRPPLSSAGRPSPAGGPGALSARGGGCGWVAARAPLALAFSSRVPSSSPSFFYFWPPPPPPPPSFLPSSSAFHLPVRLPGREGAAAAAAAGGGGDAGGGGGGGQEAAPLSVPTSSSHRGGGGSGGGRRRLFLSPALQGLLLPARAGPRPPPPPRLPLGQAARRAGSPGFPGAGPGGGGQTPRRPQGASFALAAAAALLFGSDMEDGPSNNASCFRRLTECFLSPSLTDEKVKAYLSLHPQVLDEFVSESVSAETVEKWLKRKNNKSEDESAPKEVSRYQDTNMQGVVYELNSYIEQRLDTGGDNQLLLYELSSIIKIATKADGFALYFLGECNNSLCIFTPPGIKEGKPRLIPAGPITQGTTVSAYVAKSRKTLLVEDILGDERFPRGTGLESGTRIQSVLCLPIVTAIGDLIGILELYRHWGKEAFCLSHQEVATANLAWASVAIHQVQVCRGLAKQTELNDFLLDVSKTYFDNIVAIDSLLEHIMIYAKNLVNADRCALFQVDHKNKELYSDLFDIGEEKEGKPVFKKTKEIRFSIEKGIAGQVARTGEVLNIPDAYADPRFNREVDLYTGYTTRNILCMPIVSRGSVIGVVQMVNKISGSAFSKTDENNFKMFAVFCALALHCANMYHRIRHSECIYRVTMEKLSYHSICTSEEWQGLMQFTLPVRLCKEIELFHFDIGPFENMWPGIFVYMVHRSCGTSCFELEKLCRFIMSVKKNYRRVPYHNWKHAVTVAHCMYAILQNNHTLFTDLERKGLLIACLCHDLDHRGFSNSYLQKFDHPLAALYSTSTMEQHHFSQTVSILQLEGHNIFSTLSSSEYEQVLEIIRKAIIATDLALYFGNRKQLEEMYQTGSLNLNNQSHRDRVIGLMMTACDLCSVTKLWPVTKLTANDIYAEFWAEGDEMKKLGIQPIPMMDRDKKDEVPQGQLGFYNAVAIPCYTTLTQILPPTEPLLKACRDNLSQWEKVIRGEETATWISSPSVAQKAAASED

Turning to `CC(C)c1ccc(Cn2c(Nc3ccc(Oc4ncccc4C4CCOCC4)cc3)nc3ccccc32)cc1`, the negative-log IC50 (pIC50) was 7.50.
Under `O=C(c1ccc(Oc2ncccc2[C@@H]2CCOC2)cc1)c1nc2ccccc2[nH]1` stands 9.04; under `O[C@@H]1CCC[C@H](c2cccnc2Oc2ccc(Nc3nc4ccccc4s3)cc2)C1`, 8.66.
Under `c1cnc(Oc2ccc(Nc3nc4ccccc4s3)cc2)c([C@H]2CCOC2)c1` stands 9.06.
Compound `CC(=O)N1CCC[C@@H](c2cccnc2Oc2ccc(Nc3nc4ccccc4s3)cc2)C1` gave a pIC50 of 9.57.
In the case of `O[C@@H]1CC[C@H](c2cccnc2Oc2ccc(Nc3nc4ccccc4s3)cc2)C1`, the pIC50 was 8.58.
In the case of `COc1ncccc1-c1cccnc1Oc1ccc(Nc2nc3ccccc3s2)cc1` it was 8.60; in that of `COc1cccc(-c2cccnc2Oc2ccc(Nc3nc4ccccc4s3)cc2)n1`, 6.79.
`O[C@H]1CCC[C@@H](c2cccnc2Oc2ccc(Nc3nc4ccccc4s3)cc2)C1` had a negative-log IC50 (pIC50) of 8.43.
As for `O[C@H]1CC[C@H](c2cccnc2Oc2ccc(Nc3nc4ccccc4s3)cc2)C1`, the pIC50 is 8.92.
Consider `O[C@H]1CC[C@@H](c2cccnc2Oc2ccc(Nc3nc4ccccc4s3)cc2)C1`, for which the pIC50 is 8.60.
The compound `O[C@H]1CC[C@H](c2cccnc2Oc2ccc(Nc3nc4ccccc4s3)cc2)CC1` showed a pIC50 of 8.20.
In the case of `O[C@H]1CC[C@@H](c2cccnc2Oc2ccc(Nc3nc4ccccc4s3)cc2)CC1` it was 8.79; in that of `O=C(c1ccc(Oc2ncccc2C2CCOCC2)cc1)c1nc2ncccc2[nH]1`, 8.87.
`OC(c1ccc(Oc2ncccc2C2=CCOCC2)cc1)c1nc2ccccc2s1` (configuration not stated) had a pIC50 of 6.29.
In turn, `O=C(c1ccc(Oc2ncccc2[C@H]2CC[C@@H](O)CC2)cc1)c1nc2ccccc2[nH]1` had a pIC50 of 9.51.
With `O=C(c1ccc(Oc2ncccc2[C@H]2CC[C@H](O)CC2)cc1)c1nc2ccccc2[nH]1`, the pIC50 was 10.00.
Under `O=C(c1ccc(Oc2ncccc2[C@H]2CC[C@](O)(C(F)(F)F)CC2)cc1)c1nc2ccccc2[nH]1` stands 7.90.
In turn, `CC(=O)N1CCCC[C@@H]1c1cccnc1Oc1ccc(C(=O)c2nc3ccccc3[nH]2)cc1` had a negative-log IC50 (pIC50) of 10.19.
`COc1cccnc1-c1cccnc1Oc1ccc(Nc2nc3ccccc3s2)cc1` had a negative logarithm of the IC50 (pIC50) of 6.63.
Under `COc1cccc(-c2cccnc2Oc2ccc(C(=O)c3nc4ccccc4[nH]3)cc2)n1` stands 8.63; under `O=C(c1ccc(Oc2ncccc2[C@H]2CC[C@@](O)(C(F)(F)F)C2)cc1)c1nc2ccccc2[nH]1`, 9.14.
Consider `O=C(c1ccc(Oc2ncccc2[C@@H]2CC[C@](O)(C(F)(F)F)C2)cc1)c1nc2ccccc2[nH]1`, for which the pIC50 was 8.80.
Under `O=C(c1ccc(Oc2ncccc2[C@H]2CC[C@]3(CCO3)CC2)cc1)c1nc2ccccc2[nH]1` stands 9.19; under `C[C@]1(O)CC[C@H](c2cccnc2Oc2ccc(C(=O)c3nc4ccccc4[nH]3)cc2)C1`, 9.18; under `C[C@]1(O)CC[C@@H](c2cccnc2Oc2ccc(C(=O)c3nc4ccccc4[nH]3)cc2)C1`, 9.12.
`COc1cccnc1-c1cccnc1Oc1ccc(C(=O)c2nc3ccccc3[nH]2)cc1` showed a pIC50 of 7.77.
Under `O=C(c1ccc(Oc2ncccc2[C@@H]2CC[C@@H](CO)C2)cc1)c1nc2ccccc2[nH]1` stands 9.50; under `O=C(c1ccc(Oc2ncccc2[C@@H]2CC[C@H](CO)C2)cc1)c1nc2ccccc2[nH]1`, 9.51; under `O=C(c1ccc(Oc2ncccc2[C@H]2CC[C@@H](CO)C2)cc1)c1nc2ccccc2[nH]1`, 9.67.
The compound `CC(=O)N1CC=C(c2cncnc2Oc2ccc(C(=O)c3nc4ccccc4[nH]3)cc2)CC1` had a pIC50 of 8.81.
As to `COc1cncc(-c2cccnc2Oc2ccc(Nc3nc4ccccc4s3)cc2)c1`, the negative logarithm of the IC50 (pIC50) is 8.39.
In the case of `COc1ccc(-c2cccnc2Oc2ccc(C(=O)c3nc4ccccc4[nH]3)cc2)nc1` it was 8.06.
Under `O=C(c1ccc(Oc2ncccc2[C@@H]2CCCOCC2)cc1)c1nc2ccccc2[nH]1` stands 10.30.
The compound `O=C(c1ccc(Oc2ncccc2-c2ccnc(Cl)c2)cc1)c1nc2ccccc2[nH]1` gave a pIC50 of 8.79.
As to `C[C@@]1(O)CC[C@@H](c2cccnc2Oc2ccc(Nc3nc4ccccc4s3)cc2)C1`, the pIC50 was 7.97.
With `C[C@]1(O)CC[C@H](c2cccnc2Oc2ccc(Nc3nc4ccccc4s3)cc2)C1`, the pIC50 was 8.64.
`O[C@H]1CCC[C@H](c2cccnc2Oc2ccc(Nc3nc4ccccc4s3)cc2)C1` gave a pIC50 of 8.00.
Under `O=C1CCCC(c2cccnc2Oc2ccc(C(=O)c3nc4ccccc4[nH]3)cc2)CC1` (configuration not stated) stands 10.11.
In the case of `Fc1ccc(Cn2c(Nc3ccc(Oc4ncccc4C4CCOCC4)cc3)nc3ccccc32)cc1` it was 8.04; in that of `O=C(c1ccc(Oc2ncccc2[C@@H]2CCC[C@@H](O)C2)cc1)c1nc2ccccc2[nH]1`, 9.84 and 9.23; in that of `CC(=O)N1CCC(c2cccnc2Oc2ccc(C(=O)c3nc4ccccc4n3C)cc2)CC1`, 8.97.
In the case of `COc1cnccc1-c1cccnc1Oc1ccc(C(=O)c2nc3ccccc3[nH]2)cc1` it was 9.58.
In turn, `O=C(c1ccc(Oc2ncccc2[C@H]2CCC[C@H](O)C2)cc1)c1nc2ccccc2[nH]1` showed a pIC50 of 8.77.
Under `Cn1c(C(=O)c2ccc(Oc3ncccc3-c3ccnc(F)c3)cc2)nc2ccccc21` stands 7.99.
For the compound `Cc1cc(-c2cccnc2Oc2ccc(C(=O)c3nc4ccccc4n3C)cc2)ccn1`, the pIC50 was 8.21.
Under `CC(=O)N1CC[C@@H](c2cccnc2Oc2ccc(C(=O)c3nc4ccccc4[nH]3)cc2)C1` stands 9.28.
As for `COc1ccc(Cn2c(Nc3ccc(Oc4ncccc4C4CCOCC4)cc3)nc3ccccc32)cc1`, the pIC50 is 8.77.
In the case of `COc1nc2ccccc2cc1-c1cccnc1Oc1ccc(C(=O)c2nc3ccccc3[nH]2)cc1` it was 6.38.
`c1ccc(-n2ncc3cc(Oc4ncccc4C4CCCCC4)ccc32)nc1`: the pIC50 was 6.38.
In turn, `O=C(c1ccc(Oc2ncccc2-c2cccnc2F)cc1)c1nc2ccccc2[nH]1` gave a pIC50 of 9.79.
Under `O=C(c1ccc(Oc2ncccc2-c2cc[nH]c(=O)c2)cc1)c1nc2ccccc2[nH]1` stands 8.93; under `COc1ccc(-c2cccnc2Oc2ccc(C(=O)c3nc4ccccc4[nH]3)cc2)c(OC)n1`, 9.16.
On to `CSc1cncc(-c2cccnc2Oc2ccc(C(=O)c3nc4ccccc4[nH]3)cc2)c1`, for which the pIC50 was 8.97.
In the case of `O=C(c1ccc(Oc2ncccc2C2CCS(=O)(=O)CC2)cc1)c1nc2ccccc2[nH]1` it was 9.20; in that of `COc1cc(-c2cccnc2Oc2ccc(Nc3nc4ccccc4s3)cc2)ccn1`, 7.92; in that of `COc1cnccc1-c1cccnc1Oc1ccc(C(=O)c2nc3ccccc3n2C)cc1`, 9.92.
With `COc1cnccc1-c1cccnc1Oc1ccc(Nc2nc3ccccc3s2)cc1`, the pIC50 was 9.13.
Under `COc1ccncc1-c1cccnc1Oc1ccc(C(=O)c2nc3ccccc3[nH]2)cc1` stands 10.14; under `O=C(c1ccc(Oc2ncccc2C2CCOC2)cc1)c1nc2ccccc2n1CCF` (configuration not stated), 8.64; under `COc1ccncc1-c1cccnc1Oc1ccc(Nc2nc3ccccc3s2)cc1`, 9.04.
As to `COc1ccnc(-c2cccnc2Oc2ccc(C(=O)c3nc4ccccc4[nH]3)cc2)c1`, the pIC50 was 8.39.
In the case of `COc1ccnc(-c2cccnc2Oc2ccc(C(=O)c3nc4ccccc4n3C)cc2)c1` it was 8.75; in that of `Cc1cnc(Oc2ccc(C(=O)c3nc4ccccc4[nH]3)cc2)c(-c2ccnc(C)c2)c1`, 8.86.
Turning to `Cc1cnc(Oc2ccc(C(=O)c3nc4ccccc4n3C)cc2)c(-c2ccnc(C)c2)c1`, the negative logarithm of the IC50 (pIC50) is 8.94.
`COc1ncc(-c2ccnc(F)c2)c(Oc2ccc(C(=O)c3nc4ccccc4[nH]3)cc2)n1` gave a pIC50 of 7.64.
In turn, `O=C(c1ccc(Oc2ncccc2C2CCNCC2)cc1)c1nc2ccccc2[nH]1` had a pIC50 of 8.68.

As a reminder, the pIC50 is the IC50 on a negative log10 scale, so that one unit is a factor of ten.
